# PubChem BioAssay AID977613 (Broad Institute, 2014)
# Calls of active or inactive are those of the source. The rule behind the calls is not given here.
# Tested on: Broad 7084-01 inhibitor HTS, set 2
# Assay: inhibitors in Broad screen 7084-01, set 2 (AID 977613);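 note: host cells are infected with parasite promastigotes that become internalized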
row,Compound,active concentration
1,CN1c2ccc(-c3ccc(C#N)cc3)cc2[C@@H]2[C@@H](CCN2C(=O)Nc2cccc(F)c2)[C@@H]1CO,> 10 µM (inactive)
2,COc1ccc2c3c(n(C)c2c1)[C@H](CO)N(S(=O)(=O)c1ccc(C)cc1)CC31CCN(C)CC1,> 10 µM (inactive)
3,Cc1ccccc1S(=O)(=O)N1CCCCN2[C@H](CO)[C@@H](c3ccc(C#CCN(C)C)cc3)[C@H]2C1,> 10 µM (inactive)
4,C/C=C/c1ccc([C@@H]2[C@@H](CO)N3C(=O)CN(Cc4ccc(F)cc4)C[C@@H]23)cc1,> 10 µM (inactive)
5,O=C([C@H]1[C@H](CO)[C@H]2Cn3c(cccc3=O)[C@H]2N1Cc1ccccc1Cl)N1CCCCC1,> 10 µM (inactive)
6,CCCNC(=O)N1[C@H](CO)[C@H](c2ccccc2-c2cccc(OC)c2)[C@@H]1C#N,> 10 µM (inactive)
7,O=C(Nc1ccc(-c2ccccc2)cc1)[C@@H]1[C@@H](CO)[C@@H]2Cn3c(cccc3=O)[C@H]1N2Cc1ccncc1,> 10 µM (inactive)
8,O=C(CN1CCOCC1)N1CC(=O)N2[C@H](C1)[C@@H](c1ccc(-c3cccc(F)c3)cc1)[C@@H]2CO,> 10 µM (inactive)
9,O=C(C[C@@H]1CC[C@H]2[C@@H](COC[C@@H](O)CN2C(=O)c2ccc(F)cc2)O1)NCc1cccc(F)c1,> 10 µM (inactive)
10,CCCNC(=O)N1[C@H](C#N)[C@H](c2ccccc2-c2ccccc2F)[C@@H]1CO,> 10 µM (inactive)
11,CC(=O)N1CCCCN2[C@@H](CO)[C@@H](c3ccc(-c4ccccc4)cc3)[C@@H]2C1,> 10 µM (inactive)
12,O=C(C[C@H]1CC[C@@H]2[C@H](COC[C@H](O)CN2CCC(F)(F)F)O1)NCC1CC1,> 10 µM (inactive)
13,O=S(=O)(c1ccc(F)cc1)N1CCCCN2[C@H](C1)[C@@H](c1ccc(-c3cncnc3)cc1)[C@@H]2CO,> 10 µM (inactive)
14,OC[C@@H]1[C@@H](c2ccc(C#CC3(O)CCCC3)cc2)[C@@H]2CN(Cc3cncnc3)CCCCN12,> 10 µM (inactive)
15,COc1cccc(-c2ccc3c(c2)[C@@H]2[C@@H](CCN2S(=O)(=O)c2cn(C)cn2)[C@@H](CO)N3)c1,> 10 µM (inactive)
16,COc1ccc2c3c([nH]c2c1)[C@@H](CO)N(C(=O)c1ccc(F)cc1)CC31CCN(S(=O)(=O)c2cccs2)CC1,> 10 µM (inactive)
17,CN1c2ccc(C#Cc3cccnc3)cc2[C@H]2[C@H](CCN2S(=O)(=O)c2ccccc2F)[C@@H]1CO,> 10 µM (inactive)
18,CN(C)CCCNC(=O)C[C@H]1CC[C@H]2[C@@H](COC[C@@H](O)CN2CC2CC2)O1,> 10 µM (inactive)
19,Cc1ccc(NC(=O)Nc2ccc3c(c2)C(=O)N(C)[C@@H]2CC[C@@H](CC(=O)NCC(F)(F)F)O[C@@H]2CO3)cc1,> 10 µM (inactive)
20,N#C[C@@H]1[C@@H](c2ccccc2-c2ccccc2F)[C@@H](CO)N1C(=O)Cc1ccccc1,> 10 µM (inactive)
21,CN(C)CC(=O)N1C[C@@H]2[C@H](c3ccccc31)[C@H](CO)N2Cc1cc(F)ccc1F,> 10 µM (inactive)
22,CCS(=O)(=O)N1CC2(CN(C(=O)Cc3ccccn3)[C@H](CO)c3[nH]c4cc(OC)ccc4c32)C1,> 10 µM (inactive)
23,CCCNC(=O)N1CC2(C1)[C@H](c1ccccc1)[C@@H](CO)N2Cc1cccc(Cl)c1,> 10 µM (inactive)
24,N#C[C@@H]1[C@H](c2ccccc2C2=CCCCC2)[C@H](CO)N1C(=O)Nc1ccccc1F,> 10 µM (inactive)

row,Compound,active concentration
1,O=C(NC1CCCCC1)N1CC2(C1)[C@H](c1ccccc1)[C@H](CO)N2CC1CCCC1,> 10 µM (inactive)
2,CC(=O)N1CC[C@@H]2[C@@H](CO)Nc3ccc(C#Cc4cccnc4)cc3[C@@H]21,> 10 µM (inactive)
3,CCNC(=O)C[C@H]1CC[C@@H]2[C@H](COC[C@@H](O)CN2C(=O)C2CC2)O1,> 10 µM (inactive)
4,N#C[C@@H]1[C@@H](c2ccccc2-c2cccc(F)c2)[C@@H](CO)N1C(=O)C1CC1,> 10 µM (inactive)
5,CN(C)CC(=O)N1CCCCN2[C@@H](CO)[C@@H](c3ccc(/C=C/c4ccccc4)cc3)[C@@H]2C1,< 10 µM
6,O=C(C[C@H]1CC[C@H]2[C@@H](COC[C@H](O)CN2S(=O)(=O)c2cccc(Cl)c2)O1)Nc1ccc(-c2ccccc2)cc1,> 10 µM (inactive)
7,CCCNC(=O)N1CC(=O)N2[C@H](C1)[C@@H](c1ccc(-c3ccc(F)cc3)cc1)[C@@H]2CO,> 10 µM (inactive)
8,COC(=O)[C@H]1[C@H](CO)[C@H]2Cn3c(ccc(-c4cccc(OC)c4)c3=O)[C@H]2N1Cc1nccs1,> 10 µM (inactive)
9,CC=Cc1ccc2n(c1=O)C[C@H]1[C@H](CO)[C@@H](C(=O)Nc3ccccc3)N(CC3CCCC3)[C@@H]21 (mixture of isomers),> 10 µM (inactive)
10,C/C=C/c1ccc([C@H]2[C@@H](CO)N(CCC(F)(F)F)C23CN(C(=O)COC)C3)cc1,> 10 µM (inactive)
11,O=C(C[C@@H]1CC[C@H]2[C@@H](COC[C@H](O)CN2C(=O)Nc2ccc(C(F)(F)F)cc2)O1)NCC1CC1,> 10 µM (inactive)
12,Cc1nn(C)cc1NC(=O)C[C@@H]1CC[C@H]2[C@H](COc3ccc(NC(=O)C4CCOCC4)cc3C(=O)N2C)O1,> 10 µM (inactive)
13,COc1cccc(CN2[C@H](CO)[C@@H](c3ccccc3)C23CN(Cc2ccccc2OC)C3)c1,> 10 µM (inactive)
14,CCCNC(=O)N1[C@@H](CO)[C@H](c2ccccc2)C12CN(C(=O)C1CCCCC1)C2,> 10 µM (inactive)
15,N#C[C@H]1[C@H](c2ccccc2C2=CCCCC2)[C@H](CO)N1C(=O)c1cccc(F)c1,> 10 µM (inactive)
16,CC(C)C#Cc1ccc([C@@H]2[C@H](CO)N3C(=O)CN(C(=O)c4ccc5c(c4)OCO5)C[C@@H]23)cc1,> 10 µM (inactive)
17,O=C(C[C@H]1CC[C@H]2[C@@H](COC[C@@H](O)CN2CC2CC2)O1)NCc1ccc(Cl)cc1,> 10 µM (inactive)
18,CN1C(=O)c2cc(NC(=O)C3CCOCC3)ccc2OC[C@H]2O[C@@H](CC(=O)NCCc3ccncc3)CC[C@H]21,> 10 µM (inactive)
19,O=C(C[C@H]1CC[C@H]2[C@@H](COC[C@H](O)CN2C(=O)c2ccncc2)O1)NCc1ccc(-c2ccccc2)cc1,> 10 µM (inactive)
20,O=C(C[C@H]1CC[C@@H]2[C@H](COC[C@@H](O)CN2Cc2cc(F)ccc2F)O1)NCc1ccc(F)cc1,> 10 µM (inactive)
21,CN(C)C(=O)c1cccc(-c2ccc([C@@H]3[C@@H](CO)N4C(=O)CN(C(=O)C5CCC5)C[C@@H]34)cc2)c1,> 10 µM (inactive)
22,CC(C)C#Cc1ccc([C@H]2[C@H](CO)N3C(=O)CN(C(=O)c4ccc5c(c4)OCO5)C[C@@H]23)cc1,> 10 µM (inactive)
23,O=C(C[C@H]1CC[C@H]2[C@@H](COC[C@H](O)CN2Cc2cccc(F)c2)O1)NCc1cccc(F)c1,> 10 µM (inactive)
24,O=C(C[C@@H]1CC[C@H]2[C@@H](COC[C@H](O)CN2C(=O)c2ccncc2)O1)NCc1ccc(-c2ccccc2)cc1,> 10 µM (inactive)

row,Compound,active concentration
1,CN(C)CC#Cc1ccc([C@H]2[C@H]3CN(C(=O)Nc4ccccc4F)CCCCN3[C@H]2CO)cc1,> 10 µM (inactive)
2,COc1ccc2c3c(n(C)c2c1)[C@@H](CO)N(C)CC31CN(CC2CC2)C1,> 10 µM (inactive)
3,N#C[C@@H]1[C@H](c2ccccc2C2=CCCCC2)[C@H](CO)N1C(=O)c1cccc(F)c1,> 10 µM (inactive)
4,COc1cccc(-c2ccc3c(c2)[C@H]2[C@H](CCN2C(=O)Cc2ccccc2)[C@H](CO)N3)c1,> 10 µM (inactive)
5,O=C(C[C@@H]1CC[C@@H]2[C@H](COC[C@H](O)CN2Cc2ccc3c(c2)OCO3)O1)Nc1ccccc1,> 10 µM (inactive)
6,O=C(O)[C@H]1[C@H](CO)[C@H]2Cn3c(ccc(C4=CCCCC4)c3=O)[C@@H]1N2C(=O)Cc1ccccn1,> 10 µM (inactive)
7,Cc1ccccc1S(=O)(=O)N1CC[C@@H]2[C@H]1c1cc(C#Cc3ccccc3)ccc1N[C@@H]2CO,> 10 µM (inactive)
8,COc1cccc(-c2ccc3c(c2)[C@H]2[C@H](CCN2S(=O)(=O)c2ccccc2C)[C@@H](CO)N3)c1,> 10 µM (inactive)
9,OC[C@@H]1[C@H](c2ccc(C3=CCCC3)cc2)[C@H]2CN(Cc3ccncc3)CCCCN12,> 10 µM (inactive)
10,O=S(=O)(c1ccc(F)cc1)N1CCCCN2[C@@H](CO)[C@@H](c3ccc(-c4cncnc4)cc3)[C@@H]2C1,> 10 µM (inactive)
11,Cn1cnc(CCNC(=O)C[C@H]2CC[C@H]3[C@@H](COC[C@H](O)CN3C(=O)C3CC3)O2)c1,> 10 µM (inactive)
12,OC[C@H]1[C@H]2c3ccccc3NC[C@H]2N1Cc1ccccc1Cl,> 10 µM (inactive)
13,CN(C)CC(=O)N1[C@@H](CO)[C@@H](c2ccccc2)C12CN(CCC(F)(F)F)C2,> 10 µM (inactive)
14,CC(=O)N1CC[C@@H]2[C@H](CO)Nc3ccc(C#Cc4cccnc4)cc3[C@@H]21,> 10 µM (inactive)
15,CN(C)C(=O)C[C@H]1CC[C@@H]2[C@H](COC[C@H](O)CN2CC2CCCC2)O1,> 10 µM (inactive)
16,COc1ccc2c3c([nH]c2c1)[C@H](CO)N(S(=O)(=O)c1ccc(C)cc1)CC31CCN(Cc2nccs2)CC1,> 10 µM (inactive)
17,O=C1CNC[C@H]2[C@@H](c3ccc(C4=CCCC4)cc3)[C@H](CO)N12,> 10 µM (inactive)
18,C/C=C/c1ccc([C@@H]2[C@H](CO)N(CC3CCOCC3)C23CN(S(=O)(=O)CC)C3)cc1,> 10 µM (inactive)
19,O=S(=O)(c1ccc(F)cc1)N1C[C@H]2[C@@H](c3ccccc31)[C@H](CO)N2Cc1ccc2c(c1)OCO2,> 10 µM (inactive)
20,CCS(=O)(=O)N1CC2(C1)[C@@H](c1ccccc1)[C@@H](CO)N2C(=O)c1ccccc1,> 10 µM (inactive)
21,CN1CCN(C(=O)C[C@@H]2CC[C@@H]3[C@H](COC[C@H](O)CN3CC3CC3)O2)CC1,> 10 µM (inactive)
22,O=C(Nc1ccc(F)cc1)N1CC(=O)N2[C@H](CO)[C@@H](c3ccc(C#Cc4cccnc4)cc3)[C@H]2C1,> 10 µM (inactive)
